Results as given in patent US6177475A, “Methods of using integrin modulators for treatment of inflammation” (priority 1997, dated 2001).

What was measured:
[1] = system: H9 cells; experiment: Disruption of cell clusters formed by H9 cells in culture; assay type: cell-based; details: Homo sapiens, 16 to 24 h
Protocol: (§1) T-lymphocytic H9 and Jurkat cells were maintained as suspension cultures in RPMI-1640 medium supplemented with 10% (v/v) heat-inactivated fetal calf serum, 50 micrograms/ml gentamycin and 2 mM L-glutamine. To assess the effects of Ajoene on adhesive interactions of the cells, H9 cells or Jurkat cells were seeded in 96-well flat-bottomed plates (3×10^5cells per well) and cultured in the presence of log 10 dilutions of Ajoene (experiment) or its vehicle (control) for 16 to 24 h.
(§2) The requirement of integrins for the formation of cell-to-cell contacts in each of these systems has long been established. It is known that in platelets the relevant integrin is GP IIb/IIIa (β3). Neutrophil aggregation is underlain by interactions of β2 integrins (e.g., LFA-1 and/or Mac-1) with their surface counterstructures, while cohesion of T-cells is supported by both β2 integrins and fibronectin-binding β1 integrins (e.g., VLA-4 and VLA-5).

[2] = system: Jurkat cells; experiment: Disruption of cell clusters formed by Jurkat cells in culture; assay type: cell-based; details: Homo sapiens, 16 to 24 h
Protocol: as §1, §2

[3] = system: LFA-1 (ICAM-1); experiment: Adhesion of TPA-activated Jurkat cells to SVT2/ICAM-1 monolayers; assay type: cell-based; details: Homo sapiens, 0.75 h, SVT2/ICAM-1, TPA 125 ng/ml, 45 min
Protocol: SVT2 cells transfected with human ICAM-1 or VCAM-1 (SVT2/ICAM-1 and […], respectively) were plated into 96-well plates and cultured overnight. […] The labeled Jurkat cells were washed three times and resuspended at a density of 4×10^6 cells/ml in complete RPMI medium. Serial dilutions of Ajoene were prepared in complete RPMI medium. Aliquots of the cells (0.5 ml) were then mixed with an equal volume of Ajoene dilutions (1:1 v/v), and the mixtures incubated at 37° C. for 30 min. Thereafter, Ajoene-incubated cells were added in duplicate to SVT2/ICAM-1 and SVT2/VCAM-1 monolayers, and TPA was introduced into each well to the final concentration of 125 ng/ml. The plates were incubated at 37° C. for 45 min, after which the non-adherent cells were removed by washing with warm complete RPMI medium. The bound labeled cells were lysed by adding 1% Triton X-100 solution in 0.1 N HCl. The lysates were assayed in a gamma counter to determine the percentage of bound cells. […] Thus, coculturing of Jurkat cells with SVT2/ICAM-1 and SVT2/VCAM-1 cells makes it possible to assess, respectively, the function of IFA-1 and VLA-4 under identical conditions. In the absence of TPA, 10 and 20% of the added Jurkat cells adhered to SVT2/ICAM-1 and SVT2/VCAM-1 cells, respectively. […]

[4] = system: 111In-labeled neutrophils; experiment: Neutrophil recruitment to inflamed joints in rat adjuvant arthritis; assay type: in vivo; details: 50 mg/kg i.v.; for Accumulation of 111In-labeled Neutrophils (mean ± SEM): 2 h
Protocol: Rat adjuvant arthritis is characterized by integrin-mediated migration of ^51 Cr-labeled monocytes and ^111 In-labeled neutrophils into the inflamed synovium, which attains maximum between days 14 and 21 after the immunization. This model of human rheumatoid arthritis was used to assess in vivo effects of Ajoene on integrins that are known to be modulated by Ajoene in vitro.
Adjuvant arthritis was induced in 6-8 week old inbred male Lewis rats by immunization on the lower back with 0.5 mg Mycobacterium butyricum (Difco Laboratories, Inc., Detroit, Mich.) in 0.05 ml mineral oil in two sites subcutaneously at the base of the tail. All the animals developed polyarticular arthritis between days 11 and 13 after immunization. For clinical scoring, 0-4 points were assigned per limb and tail, based on the severity of erythema, swelling, and limitation of movement (the maximal possible score was 20).
Rat blood monocytes and neutrophils for migration studies were obtained by the hydroxyethyl starch (HES) exchange transfusion technique. The total blood volume of a donor rat was exchanged using 50 ml 6% HES solution in saline (DuPont Chemical Co., Dorval, Canada). After recovery of 40-45 ml blood/HES perfusate, the red cells were allowed to sediment (1 g) and the leukocyte-rich plasma was harvested. The leukocytes were recovered by centrifugation, resuspended in calcium-magnesium-free Tyrode's solution supplemented with 10% platelet-poor plasma (TS-PPP), and centrifuged in a discontinuous 63%/74% gradient of isotonic Percoll (Pharmacia Fine Chemicals, Dorval, Canada). The top layer, containing mononuclear cells (MN), and the cells in the 63%/74% interface, containing neutrophils, were collected, washed, and resuspended in TS-PPP. To obtain purified monocytes, the osmolality of the MN suspension was increased by adding 9% NaCl, and the suspension was centrifuged in a 40%/55%/58% Percoll gradient; monocytes were harvested at 40%/55% and […] interfaces, washed, and resuspended in TS-PPP.
Thereafter, monocytes (10^7 cells/ml) were labeled with 75 microCurie/ml of Na2^51 CrO4 (Amersham, Oakville, Canada) at 37° C. for 30 min. Neutrophils (10^7 cells/ml) were labeled with 1 microCurie/ml of ^111 In oxine (Amersham) for 10 min. Both populations were washed to remove excess labeled material and checked for viability and purity. The viability of either cell population used in the experiments was in excess of 95% (as double-checked by Trypan blue exclusion and neutral red staining). The separation procedure described above ordinarily produced populations that contained no less than 90% monocytes and no less than 95% neutrophils. […]

[5] = system: melanoma B16 cells; experiment: Experimental metastasis, lung colonization by melanoma B16 cells; assay type: in vivo, C57BL/6 mice; details: B16 cells pretreated 30 min; 200 micromoles per liter; 3 weeks
Protocol: A suspension of 10^5 melanoma B16 cells was pretreated for 30 min with Ajoene, and the suspension (including Ajoene) was injected intravenously into male C57BL/6 mice. The mice were sacrificed 3 weeks post-injection, and their lungs subjected to microscopic examination.

C=CCSSC=CC[S+]([O-])CC=C (centres unmarked) [Ajoene, 4,5,9-trithiadodeca-1,6,11-triene-9-oxide]
IC50 [1]: ~50 nM | IC50 [2]: ~50 nM | IC50 [3]: 10000 nM | inhibition of neutrophil recruitment to the talar joints [4]: ~ 50% | Accumulation of 111In-labeled Neutrophils (mean ± SEM) ([4]; talar joint, P < 0.001): 15,052 cpm per sample | Accumulation of 111In-labeled Neutrophils (mean ± SEM) ([4]; tarsal joint, P = 0.085): 7,353 cpm per sample | Accumulation of 111In-labeled Neutrophils (mean ± SEM) ([4]; vertebral joints, P = 0.089): 3,658 cpm per sample | prevention of lung colonization [5]: prevented lung colonization
